Measured values: ChEMBL document CHEMBL1201862, “PubChem BioAssay data set” (2004)
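Tested at 5 concentrations; 48 h exposure; 96-well plates; endpoints linearly interpolated, else capped at highest concentration. Here, GI50 denotes the concentration required for 50% inhibition of growth.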 Active and inactive are the calls of the source. Cut-off read from the data, not from the text of the source: active = GI50 up to about 1.1 µM and inactive = higher.

Key:
Assay in all cases: growth of human tumour cells (NCI), 48 h
[1] = system: HOP-18
[2] = system: A498
[3] = system: HT-29
[4] = system: OVCAR-8
[5] = system: LXFL 529
[6] = system: HOP-92
[7] = system: UACC-62
[8] = system: OVCAR-5
[9] = system: HCT-116
[10] = system: M19-MEL
[11] = system: NCI-H226
[12] = system: SNB-19
[13] = system: SK-MEL-28
[14] = system: CCRF-CEM
[15] = system: ACHN
[16] = system: K562
[17] = system: IGROV-1
[18] = system: SF-539
[19] = system: SF-268
[20] = system: UACC-257
[21] = system: SF-295
[22] = system: UO-31
[23] = system: NCI-H522
[24] = system: HOP-62
[25] = system: NCI-H23
[26] = system: COLO 205
[27] = system: HL-60
[28] = system: NCI-H460
[29] = system: KM12
[30] = system: OVCAR-3
[31] = system: U-251
[32] = system: HCC 2998
[33] = system: SW-620
[34] = system: SK-MEL-5
[35] = system: SNB-75
[36] = system: A549
[37] = system: DLD-1
[38] = system: SK-OV-3
[39] = system: TK-10
[40] = system: DMS-273
[41] = system: M14
[42] = system: HCT-15
[43] = system: SN12C
[44] = system: DMS-114
[45] = system: OVCAR-4
[46] = system: EKVX
[47] = system: KM-20L2
[48] = system: LOX IMVI
[49] = system: SR
[50] = system: MOLT-4
[51] = system: SK-MEL-2
[52] = system: RPMI-8226
[53] = system: RXF 393
[54] = system: 786-0
[55] = system: CAKI-1
[56] = system: Malme-3M
[57] = system: SNB-78

Nc1c(C(=O)N/N=C/c2ccc(Cl)cc2)sc(=S)n1-c1ccccc1
GI50 [1]: > 100 µM (inactive)
GI50 [2]: > 100 µM (inactive)
GI50 [3]: > 100 µM (inactive)
GI50 [4]: > 100 µM (inactive)
GI50 [5]: > 100 µM (inactive)
GI50 [6]: > 100 µM (inactive)
GI50 [7]: > 100 µM (inactive)
GI50 [8]: > 100 µM (inactive)
GI50 [9]: > 100 µM (inactive)
GI50 [10]: > 100 µM (inactive)
GI50 [11]: > 100 µM (inactive)
GI50 [12]: > 100 µM (inactive)
GI50 [13]: 41.9 µM (inactive)
GI50 [14]: 22.3 µM (inactive)
GI50 [15]: > 100 µM (inactive)
GI50 [16]: 4.09 µM (inactive)
GI50 [17]: > 100 µM (inactive)
GI50 [18]: 62.8 µM (inactive)
GI50 [19]: 40.8 µM (inactive)
GI50 [20]: > 100 µM (inactive)
GI50 [21]: > 100 µM (inactive)
GI50 [22]: > 100 µM (inactive)
GI50 [23]: 31.6 µM (inactive)
GI50 [24]: > 100 µM (inactive)
GI50 [25]: > 100 µM (inactive)
GI50 [26]: > 100 µM (inactive)
GI50 [27]: > 100 µM (inactive)
GI50 [28]: 89.1 µM (inactive)
GI50 [29]: > 100 µM (inactive)
GI50 [30]: > 100 µM (inactive)
GI50 [31]: > 10 µM (inactive)
GI50 [32]: > 100 µM (inactive)
GI50 [33]: > 100 µM (inactive)
GI50 [34]: 58.2 µM (inactive)
GI50 [35]: 84.7 µM (inactive)
GI50 [36]: > 100 µM (inactive)
GI50 [37]: > 100 µM (inactive)
GI50 [38]: > 100 µM (inactive)
GI50 [39]: > 100 µM (inactive)

CCN(CC)CCC(=O)c1ccccc1
GI50 [1]: 15.3 µM (inactive)
GI50 [3]: 28.2 µM (inactive)
GI50 [4]: 24.2 µM (inactive)
GI50 [5]: 17.8 µM (inactive)
GI50 [6]: 13.1 µM (inactive)
GI50 [7]: > 10 µM (inactive)
GI50 [8]: 21.5 µM (inactive)
GI50 [40]: 18.5 µM (inactive)
GI50 [9]: 17.3 µM (inactive)
GI50 [10]: 25.6 µM (inactive)
GI50 [11]: > 100 µM (inactive)
GI50 [12]: > 100 µM (inactive)
GI50 [13]: 16.9 µM (inactive)
GI50 [41]: 16.8 µM (inactive)
GI50 [14]: 6.21 µM (inactive)
GI50 [42]: 20.1 µM
GI50 [43]: 19.3 µM (inactive)
GI50 [44]: 20.3 µM (inactive)
GI50 [15]: 16.2 µM (inactive)
GI50 [45]: 20.5 µM (inactive)
GI50 [16]: 7.45 µM (inactive)
GI50 [46]: 60 µM (inactive)
GI50 [47]: 21.5 µM (inactive)
GI50 [17]: > 100 µM (inactive)
GI50 [18]: 24.8 µM (inactive)
GI50 [19]: 17.8 µM (inactive)
GI50 [20]: 24.2 µM (inactive)
GI50 [48]: 19.4 µM (inactive)
GI50 [49]: 14 µM (inactive)
GI50 [22]: 31.3 µM (inactive)
GI50 [24]: > 100 µM (inactive)
GI50 [25]: 19.1 µM (inactive)
GI50 [26]: > 10 µM (inactive)
GI50 [50]: 19.2 µM (inactive)
GI50 [27]: 12.6 µM (inactive)
GI50 [28]: 30.8 µM (inactive)
GI50 [29]: 43.4 µM (inactive)
GI50 [30]: 18.6 µM (inactive)
GI50 [31]: 23.3 µM (inactive)
GI50 [32]: 56 µM (inactive)
GI50 [33]: 19.6 µM (inactive)
GI50 [34]: 91 µM (inactive)
GI50 [51]: > 100 µM (inactive)
GI50 [35]: 12.5 µM (inactive)
GI50 [36]: > 100 µM (inactive)
GI50 [52]: 2.85 µM (inactive)
GI50 [53]: 20.4 µM (inactive)
GI50 [39]: 21.3 µM (inactive)

COc1cccc(NC(=O)/C(CS(=O)(=O)CCC(C(C)=O)C(C)=O)=N/NC(C)(C)C)c1
GI50 [1]: 42.9 µM (inactive)
GI50 [2]: > 100 µM (inactive)
GI50 [3]: > 100 µM (inactive)
GI50 [4]: > 100 µM (inactive)
GI50 [5]: > 100 µM (inactive)
GI50 [6]: > 100 µM (inactive)
GI50 [7]: > 100 µM (inactive)
GI50 [8]: > 100 µM (inactive)
GI50 [40]: > 100 µM (inactive)
GI50 [9]: > 100 µM (inactive)
GI50 [11]: > 100 µM (inactive)
GI50 [12]: > 100 µM (inactive)
GI50 [13]: > 100 µM (inactive)
GI50 [41]: > 100 µM (inactive)
GI50 [14]: > 100 µM (inactive)
GI50 [42]: > 100 µM
GI50 [43]: > 100 µM (inactive)
GI50 [44]: > 100 µM (inactive)
GI50 [15]: > 100 µM (inactive)
GI50 [45]: > 100 µM (inactive)
GI50 [54]: > 100 µM (inactive)
GI50 [16]: > 100 µM (inactive)
GI50 [46]: > 100 µM (inactive)
GI50 [47]: > 100 µM (inactive)
GI50 [17]: > 100 µM (inactive)
GI50 [18]: > 100 µM (inactive)
GI50 [19]: > 100 µM (inactive)
GI50 [20]: > 100 µM (inactive)
GI50 [48]: > 100 µM (inactive)
GI50 [55]: > 100 µM (inactive)
GI50 [22]: > 100 µM (inactive)
GI50 [23]: > 100 µM (inactive)
GI50 [56]: > 100 µM (inactive)
GI50 [57]: > 100 µM (inactive)
GI50 [24]: > 100 µM (inactive)
GI50 [25]: > 100 µM (inactive)
GI50 [26]: > 100 µM (inactive)
GI50 [50]: > 100 µM (inactive)
GI50 [27]: > 100 µM (inactive)
GI50 [28]: > 100 µM (inactive)
GI50 [29]: > 100 µM (inactive)
GI50 [30]: > 100 µM (inactive)
GI50 [31]: > 100 µM (inactive)
GI50 [32]: > 100 µM (inactive)
GI50 [33]: > 100 µM (inactive)
GI50 [34]: > 100 µM (inactive)
GI50 [51]: > 100 µM (inactive)
GI50 [35]: > 100 µM (inactive)
GI50 [36]: > 100 µM (inactive)
GI50 [52]: > 100 µM (inactive)
GI50 [37]: > 100 µM (inactive)
GI50 [53]: > 100 µM (inactive)
GI50 [38]: > 100 µM (inactive)
GI50 [39]: > 100 µM (inactive)
